Patent publication US20050282258A1 (priority 2004, published 2005)
Where two headings read alike, the source gives them in different places.

Key:
[1] = system: yggA transcription; format: cell-based, Escherichia coli; conditions: for Beta-galactosidase specific activity (units) in medium with 1 mM arginine / Beta-galactosidase specific activity (units) in medium with 1 mM lysine: glucose-minimal A medium, 37° C.; for transcription of the yggA gene upon supplementation of the culture medium: strains carrying the wild-type argP gene
[2] = system: wild-type E. coli strain MC4100; assay: Canavanine tolerance of strains, growth in glucose-minimal A medium; format: cell-based, Escherichia coli; conditions: scored after 24 hours at 37° C.
[3] = strain GJ4748/pHYD956 (argR), Nil = 217
[4] = strain MC4100/pHYD926/pHYD956 (argP-S94L), Nil = 1557
[5] = strain MC4100/pHYD956, Nil = 20

Question: `N=C(N)NCCC[C@H](N)C(=O)O` [arginine] was tested. Which “Beta-galactosidase specific activity (units) in medium with 1 mM arginine” value [1, 3] did it give?
Answer: 424 units

Question: What about the “Beta-galactosidase specific activity (units) in medium with 1 mM arginine” value [1, 4] of the same compound?
Answer: 1514 units

Question: What about the “Beta-galactosidase specific activity (units) in medium with 1 mM arginine” value [1, 5] of the same compound?
Answer: 66 units

Question: What about the “transcription of the yggA gene upon supplementation of the culture medium” value (“transcription” for short) [1] of the same compound?
Answer: induced

Question: Which “transcription” value [1] does the source give for `N=C(N)NOCC[C@H](N)C(=O)O` [canavanine] here?
Answer: induced

Question: What about the “growth of MC4100 (canavanine tolerance)” value ([2]; 20 micrograms/ml of canavanine) of the same compound?
Answer: resistant

Question: What about the “growth of MC4100 (canavanine tolerance)” value ([2]; 65 micrograms/ml of canavanine in the presence of uracil at 40 micrograms/ml) of the same compound?
Answer: sensitive

Question: How did the “Beta-galactosidase specific activity (units) in medium with 1 mM lysine” value [1, 3] turn out when `NCCCC[C@H](N)C(=O)O` [lysine] was run?
Answer: 29 units

Question: What about the “Beta-galactosidase specific activity (units) in medium with 1 mM lysine” value [1, 4] of the same compound?
Answer: 1616 units

Question: What about the “Beta-galactosidase specific activity (units) in medium with 1 mM lysine” value [1, 5] of the same compound?
Answer: 14 units

Question: And the “transcription” value [1]?
Answer: substantially repressed

Question: `NC(=O)NCCC[C@H](N)C(=O)O` [citrulline] was tested. Which “transcription” value [1] did it give?
Answer: induced
